In ChEMBL document CHEMBL1201862, “PubChem BioAssay data set” (2004):
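A five-concentration, 48-hour dose response in 96-well plates underlies each endpoint, interpolated linearly between surrounding concentrations. GI50: concentration for 50% inhibition of growth.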 The source made the active and inactive calls. No stated cut-off is given here; in the data, active = GI50 up to about 1.1 µM and inactive = higher.

Key:
Test in all cases: inhibition of tumour cell growth, NCI panel, 48 h
HCT-116 = system: HCT-116
SF-268 = system: SF-268
SNB-19 = system: SNB-19
A549 = system: A549
UO-31 = system: UO-31
786-0 = system: 786-0
SF-295 = system: SF-295
COLO 205 = system: COLO 205
CCRF-CEM = system: CCRF-CEM
SK-MEL-5 = system: SK-MEL-5
SF-539 = system: SF-539
U-251 = system: U-251
M14 = system: M14
A498 = system: A498
HCC 2998 = system: HCC 2998
NCI-H23 = system: NCI-H23
DU-145 = system: DU-145
MDA-MB-231 = system: MDA-MB-231
MDA-MB-435 = system: MDA-MB-435
NCI/ADR-RES = system: NCI/ADR-RES

| SMILES | GI50 (HCT-116) | GI50 (SF-268) | GI50 (SNB-19) | GI50 (A549) | GI50 (UO-31) | GI50 (786-0) | GI50 (SF-295) | GI50 (COLO 205) | GI50 (CCRF-CEM) | GI50 (SK-MEL-5) | GI50 (SF-539) | GI50 (U-251) | GI50 (M14) | GI50 (A498) | GI50 (HCC 2998) | GI50 (NCI-H23) | GI50 (DU-145) | GI50 (MDA-MB-231) | GI50 (MDA-MB-435) | GI50 (NCI/ADR-RES) |
| --- | --- | --- | --- | --- | --- | --- | --- | --- | --- | --- | --- | --- | --- | --- | --- | --- | --- | --- | --- | --- |
| O=C(/C=C/c1ccccc1Cl)c1ccc(Cl)cc1Cl | 8.47 µM (inactive) | 15 µM (inactive) | 15.5 µM (inactive) | 21.3 µM (inactive) | 21.7 µM (inactive) | 16.6 µM (inactive) | 19.3 µM (inactive) | 18.1 µM (inactive) | 4.02 µM (inactive) | 15.3 µM (inactive) | 23 µM (inactive) | 12.9 µM (inactive) | 18.1 µM (inactive) | 18.8 µM (inactive) | 19.1 µM (inactive) | 19.2 µM (inactive) | – | – | – | – |
| CCOC(=O)NC(=O)c1cn(CCN2CCN(c3ncnc4[nH]cnc34)CC2)c(=O)[nH]c1=O | > 100 µM (inactive) | > 100 µM (inactive) | > 100 µM (inactive) | > 100 µM (inactive) | > 100 µM (inactive) | > 100 µM (inactive) | > 100 µM (inactive) | > 100 µM (inactive) | > 100 µM (inactive) | > 100 µM (inactive) | > 100 µM (inactive) | > 100 µM (inactive) | > 100 µM (inactive) | > 100 µM (inactive) | > 100 µM (inactive) | > 100 µM (inactive) | – | – | – | – |
| N=S(c1ccccc1[N+](=O)[O-])c1ccccc1[N+](=O)[O-] | 1.23 µM (inactive) | 4.73 µM (inactive) | 9.33 µM (inactive) | 4.45 µM (inactive) | 1.87 µM (inactive) | 1.38 µM (inactive) | – | 1.3 µM (inactive) | 1.04 µM (active) | 1.78 µM (inactive) | 3.13 µM (inactive) | – | 2.69 µM (inactive) | 28 µM (inactive) | 3.4 µM (inactive) | 3.52 µM (inactive) | 2.64 µM (inactive) | 1.77 µM (inactive) | – | – |
| O=C1O[C@H](c2ccc3c(c2)OCO3)[C@H]2CO[C@@H](c3ccc4c(c3)OCO4)[C@@H]12 | > 100 µM (inactive) | > 100 µM (inactive) | > 100 µM (inactive) | > 100 µM (inactive) | > 100 µM (inactive) | > 100 µM (inactive) | 60.1 µM (inactive) | 85.5 µM (inactive) | – | 42 µM (inactive) | > 100 µM (inactive) | > 100 µM (inactive) | > 100 µM (inactive) | – | > 100 µM (inactive) | 78.7 µM (inactive) | – | > 100 µM (inactive) | > 100 µM (inactive) | 74.1 µM (inactive) |
| CN1CCCN(C)CCCN(C)CCCN(C)CCC1 | > 100 µM (inactive) | > 100 µM (inactive) | > 100 µM (inactive) | > 100 µM (inactive) | > 100 µM (inactive) | > 100 µM (inactive) | > 100 µM (inactive) | > 100 µM (inactive) | > 100 µM (inactive) | > 100 µM (inactive) | – | > 100 µM (inactive) | > 100 µM (inactive) | – | > 100 µM (inactive) | > 100 µM (inactive) | > 100 µM (inactive) | > 100 µM (inactive) | > 100 µM (inactive) | > 100 µM (inactive) |
| COc1ccc(C2[C@H]3C(=O)N(c4ccc(Cc5ccc(N6C(=O)[C@@H]7ON(c8ccccc8)C(c8ccc(OC)cc8)[C@@H]7C6=O)cc5)cc4)C(=O)[C@H]3ON2c2ccccc2)cc1 (stereo partly specified) | > 100 µM (inactive) | > 100 µM (inactive) | > 100 µM (inactive) | > 100 µM (inactive) | > 100 µM (inactive) | > 100 µM (inactive) | > 100 µM (inactive) | > 100 µM (inactive) | > 100 µM (inactive) | 96.6 µM (inactive) | > 100 µM (inactive) | > 100 µM (inactive) | 23.1 µM (inactive) | > 100 µM (inactive) | > 100 µM (inactive) | > 100 µM (inactive) | – | – | – | – |
| Cc1cc(Cl)ccc1NC(=O)CCCC(=O)C1CCCC1=O (stereo unspecified) | > 100 µM (inactive) | > 100 µM (inactive) | > 100 µM (inactive) | > 100 µM (inactive) | > 100 µM (inactive) | > 100 µM (inactive) | > 100 µM (inactive) | > 100 µM (inactive) | > 100 µM (inactive) | > 100 µM (inactive) | > 100 µM (inactive) | > 100 µM (inactive) | > 100 µM (inactive) | > 100 µM (inactive) | > 100 µM (inactive) | > 100 µM (inactive) | – | – | – | – |
| COc1ccccc1NC(=O)C1=C(C)NC(C)=C(C(=O)Nc2ccccc2OC)C1c1cccc2ccccc12 | 23.8 µM (inactive) | 29.4 µM (inactive) | 53 µM (inactive) | 21.9 µM (inactive) | 13.7 µM (inactive) | > 100 µM (inactive) | 90.6 µM (inactive) | > 100 µM (inactive) | 20.7 µM (inactive) | 34.4 µM (inactive) | > 100 µM (inactive) | > 100 µM (inactive) | > 100 µM (inactive) | 33.9 µM (inactive) | 83.8 µM (inactive) | 21.7 µM (inactive) | – | – | – | – |
